Experimental data published in patent publication US12281149B2, “Modulators of G-protein coupled receptors” (priority 2021, dated 2025).
*1 amine or outer side, *2 acyl side, *3 side chain or, on linkers, in order; H or OH if unused. Where a SMILES comes first, the peptide text is derived from it. Side-chain parts run from the residue outwards. [ ]: non-standard residue; d: D form. The star is where a group is joined. Isobutyryl(2-(3-CN-5-F-Ph)) = CC(C)(C(=O)*)c1cc(F)cc(C#N)c1; C20 diacid = O=C(O)CCCCCCCCCCCCCCCCCCC(=O)*; X74 = CC(C)(C(=O)*)c1cc(F)cc(C(F)(F)F)c1; γGlu = O=C(O)[C@H](CCC(=O)[*:2])N[*:1]; X21 = O=C(C(CN[*:1])C(F)(F)F)[*:2]; β3hA = C[C@H](N)CC(=O)O; Dap = NC[C@H](N)C(=O)O; AEEA = NCCOCCOCC(=O)O; Aib = CC(C)(N)C(=O)O; βAla = NCCC(=O)O

How the values were obtained:
Format in all cases: cell-based
GIP receptor [1] = target: T1, GIP receptor (Homo sapiens, UniProt P48546); assay: PathHunter β-arrestin assay, GIP receptor; set-up: host or cells: PathHunter CHO-K1 GIPR β-Arrestin Cell Line; details: β-arrestin-2 recruitment, PathHunter CHO-K1 GIPR β-Arrestin Cell Line, 90 min at 37° C.; normalized to GIP; read-out: GIPR β Arrestin EC50
T1 sequence (P48546 22-466): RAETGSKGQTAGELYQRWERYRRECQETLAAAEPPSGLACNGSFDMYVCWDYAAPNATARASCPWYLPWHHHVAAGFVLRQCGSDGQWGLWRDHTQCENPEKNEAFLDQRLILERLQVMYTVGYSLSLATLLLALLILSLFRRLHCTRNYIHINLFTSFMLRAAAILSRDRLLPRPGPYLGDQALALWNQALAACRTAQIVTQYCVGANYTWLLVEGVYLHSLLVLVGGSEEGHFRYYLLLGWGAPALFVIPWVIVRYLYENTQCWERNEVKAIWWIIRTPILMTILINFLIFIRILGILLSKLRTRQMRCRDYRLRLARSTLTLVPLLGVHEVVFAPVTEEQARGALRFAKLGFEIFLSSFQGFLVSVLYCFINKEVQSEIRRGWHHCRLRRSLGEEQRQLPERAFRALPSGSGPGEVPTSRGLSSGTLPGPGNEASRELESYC

GLP-1 receptor [2] = target: T2, GLP-1 receptor (Homo sapiens, UniProt P43220); assay: HitHunter cAMP assay, GLP-1 receptor; details: for EC50: CHO cells stably expressing human GLP-1 receptor, cAMP accumulation, 30 min, read-out: EC50 GLP-1R; for Emax: CHO cells, cAMP, normalized to maximum signal from GLP-1 (high) and DMSO (low), read-out: Emax GLP-1R
T2 sequence (P43220 24-463): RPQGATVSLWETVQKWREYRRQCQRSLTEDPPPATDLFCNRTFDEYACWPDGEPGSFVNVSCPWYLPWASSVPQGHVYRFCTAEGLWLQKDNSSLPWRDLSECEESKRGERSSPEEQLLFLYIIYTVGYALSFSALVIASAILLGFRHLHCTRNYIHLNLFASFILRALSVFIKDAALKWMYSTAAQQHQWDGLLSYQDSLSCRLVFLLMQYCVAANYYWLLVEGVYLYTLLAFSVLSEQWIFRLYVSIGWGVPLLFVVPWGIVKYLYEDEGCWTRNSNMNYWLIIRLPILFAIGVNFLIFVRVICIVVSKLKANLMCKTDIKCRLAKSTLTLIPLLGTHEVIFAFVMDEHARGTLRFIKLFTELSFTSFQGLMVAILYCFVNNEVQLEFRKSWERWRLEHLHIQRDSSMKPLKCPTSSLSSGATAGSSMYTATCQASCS

GLP-1 receptor [3] = target: T2, GLP-1 receptor; assay: PathHunter β-arrestin assay, GLP-1 receptor; set-up: host or cells: PathHunter CHO-K1 GLP1R β-Arrestin Cell Line; details: β-arrestin-2 recruitment, PathHunter CHO-K1 GLP1R β-Arrestin Cell Line, 90 min at 37° C.; normalized to GLP-1; read-out: GLP-1R β Arrestin EC50
GIP receptor [4] = target: T1, GIP receptor; assay: HitHunter cAMP assay, GIP receptor; details: for EC50: CHO cells stably expressing GIP receptor, cAMP accumulation, 30 min, read-out: EC50 GIP-1R; for Emax: CHO cells, cAMP, normalized to maximum signal from GIP (high) and DMSO (low), read-out: Emax GIP-1R

Row | Compound | EC50 (GIP receptor [1]) [nM] | EC50 (GLP-1 receptor [2]) [nM] | Emax (GLP-1 receptor [2]) [%] | EC50 (GLP-1 receptor [3]) [nM] | EC50 (GIP receptor [4]) [nM] | Emax (GIP receptor [4]) [%]
1 | CC[C@H](C)[C@H](NC(=O)[C@H](CC(C)C)NC(=O)[C@H](Cc1c[nH]c2ccccc12)NC(=O)[C@H](CC(N)=O)NC(=O)[C@@H](NC(=O)[C@H](Cc1ccccc1)NC(=O)[C@H](C)NC(=O)[C@H](CCCCNC(=O)COCCOCCNC(=O)COCCOCCNC(=O)CC[C@H](NC(=O)CCCCCCCCCCCCCCCCCCC(=O)O)C(=O)O)NC(=O)[C@H](CCC(N)=O)NC(=O)[C@H](C)NC(=O)[C@@H](NC(=O)[C@H](CCCCN)NC(=O)[C@H](CC(=O)O)NC(=O)[C@H](CC(C)C)NC(=O)C(C)(C)NC(=O)[C@@H](NC(=O)[C@H](CO)NC(=O)[C@H](Cc1ccc(O)cc1)NC(=O)[C@H](CC(=O)O)NC(=O)[C@H](CO)NC(=O)[C@@H](NC(=O)[C@H](Cc1ccccc1)NC(=O)[C@@H](NC(=O)CNC(=O)[C@H](CCC(=O)O)NC(=O)CCNC(=O)C(C)(C)c1cc(F)cc(C#N)c1)[C@@H](C)O)[C@@H](C)O)[C@@H](C)CC)[C@@H](C)CC)C(C)C)C(=O)N[C@@H](C)C(=O)NCC(=O)NCC(=O)N1CCC[C@H]1C(=O)N[C@@H](CO)C(=O)N[C@@H](CO)C(=O)NCC(=O)N[C@@H](C)C(=O)N1CCC[C@H]1C(=O)N1CCC[C@H]1C(=O)N1CCC[C@H]1C(=O)N[C@@H](CO)C(N)=O [Compound 182] ({Isobutyryl(2-(3-CN-5-F-Ph))-βAla}-EGTFTSDYSI[Aib]LDKIAQK([AEEA-AEEA-γGlu-C20 diacid])AFVNWLIAGGPSSGAPPPS-NH2) | < 1000 | 0.1 to 1 | 96 | > 1000 | 10 to 100 | 98
2 | CC[C@H](C)[C@H](NC(=O)[C@H](CC(C)C)NC(=O)[C@H](Cc1c[nH]c2ccccc12)NC(=O)[C@H](CCC(N)=O)NC(=O)[C@@H](NC(=O)[C@H](Cc1ccccc1)NC(=O)[C@H](C)NC(=O)[C@H](CCCCNC(=O)COCCOCCNC(=O)COCCOCCNC(=O)CC[C@H](NC(=O)CCCCCCCCCCCCCCCCCCC(=O)O)C(=O)O)NC(=O)[C@H](CCC(N)=O)NC(=O)[C@H](C)NC(=O)[C@@H](NC(=O)[C@H](CCCCN)NC(=O)[C@H](CC(=O)O)NC(=O)[C@H](CC(C)C)NC(=O)C(C)(C)NC(=O)[C@@H](NC(=O)[C@H](CO)NC(=O)[C@H](Cc1ccc(O)cc1)NC(=O)[C@H](CC(=O)O)NC(=O)[C@H](CO)NC(=O)[C@@H](NC(=O)[C@H](Cc1ccccc1)NC(=O)[C@@H](NC(=O)CNC(=O)[C@H](CCC(=O)O)NC(=O)C(CNC(=O)C(C)(C)c1cc(F)cc(C#N)c1)C(F)(F)F)[C@@H](C)O)[C@@H](C)O)[C@@H](C)CC)[C@@H](C)CC)C(C)C)C(=O)N[C@@H](C)C(=O)NCC(=O)NCC(=O)N1CCC[C@H]1C(=O)N[C@@H](CO)C(=O)N[C@@H](CO)C(=O)NCC(=O)N[C@@H](C)C(=O)N1CCC[C@H]1C(=O)N1CCC[C@H]1C(=O)N1CCC[C@H]1C(=O)N[C@@H](CO)C(N)=O (stereo partly drawn) [Compound 165] ({Isobutyryl(2-(3-CN-5-F-Ph))}-[X21]EGTFTSDYSI[Aib]LDKIAQK([AEEA-AEEA-γGlu-C20 diacid])AFVQWLIAGGPSSGAPPPS-NH2) | > 1000 | 10 to 100 | 111 | > 1000 | 100 to 1000 | 92
3 | CC[C@H](C)[C@H](NC(=O)[C@H](CC(C)C)NC(=O)[C@H](Cc1c[nH]c2ccccc12)NC(=O)[C@H](CCC(N)=O)NC(=O)[C@@H](NC(=O)[C@H](Cc1ccccc1)NC(=O)[C@H](C)NC(=O)[C@H](CCCCNC(=O)COCCOCCNC(=O)COCCOCCNC(=O)CC[C@H](NC(=O)CCCCCCCCCCCCCCCCCCC(=O)O)C(=O)O)NC(=O)[C@H](CCC(N)=O)NC(=O)[C@H](C)NC(=O)[C@@H](NC(=O)[C@H](CCCCN)NC(=O)[C@H](CC(=O)O)NC(=O)[C@H](CC(C)C)NC(=O)C(C)(C)NC(=O)[C@@H](NC(=O)[C@H](CO)NC(=O)[C@H](Cc1ccc(O)cc1)NC(=O)[C@H](CC(=O)O)NC(=O)[C@H](CO)NC(=O)[C@@H](NC(=O)[C@H](Cc1ccccc1)NC(=O)[C@@H](NC(=O)CNC(=O)[C@H](CCC(=O)O)NC(=O)C[C@H](C)NC(=O)C(C)(C)c1cc(F)cc(C#N)c1)[C@@H](C)O)[C@@H](C)O)[C@@H](C)CC)[C@@H](C)CC)C(C)C)C(=O)N[C@@H](C)C(=O)NCC(=O)NCC(=O)N1CCC[C@H]1C(=O)N[C@@H](CO)C(=O)N[C@@H](CO)C(=O)NCC(=O)N[C@@H](C)C(=O)N1CCC[C@H]1C(=O)N1CCC[C@H]1C(=O)N1CCC[C@H]1C(=O)N[C@@H](CO)C(N)=O [Compound 222] ({Isobutyryl(2-(3-CN-5-F-Ph))}-[β3hA]EGTFTSDYSI[Aib]LDKIAQK([AEEA-AEEA-γGlu-C20 diacid])AFVQWLIAGGPSSGAPPPS-NH2) | > 1000 | 0.1 to 1 | 108 | > 1000 | 10 to 100 | 101
4 | CC[C@H](C)[C@H](NC(=O)[C@H](CC(C)C)NC(=O)[C@H](Cc1c[nH]c2ccccc12)NC(=O)[C@H](CCC(N)=O)NC(=O)[C@@H](NC(=O)[C@H](Cc1ccccc1)NC(=O)[C@H](C)NC(=O)[C@H](CCCCNC(=O)COCCOCCNC(=O)COCCOCCNC(=O)CC[C@H](NC(=O)CCCCCCCCCCCCCCCCCCC(=O)O)C(=O)O)NC(=O)[C@H](CCC(N)=O)NC(=O)[C@H](C)NC(=O)[C@@H](NC(=O)[C@H](CCCCN)NC(=O)[C@H](CC(=O)O)NC(=O)[C@H](CC(C)C)NC(=O)C(C)(C)NC(=O)[C@@H](NC(=O)[C@H](CO)NC(=O)[C@H](Cc1ccc(O)cc1)NC(=O)[C@H](CC(=O)O)NC(=O)[C@H](CO)NC(=O)[C@@H](NC(=O)[C@H](Cc1ccccc1)NC(=O)[C@@H](NC(=O)CNC(=O)[C@H](CCC(=O)O)NC(=O)[C@@H](N)CNC(=O)C(C)(C)c1cc(F)cc(C#N)c1)[C@@H](C)O)[C@@H](C)O)[C@@H](C)CC)[C@@H](C)CC)C(C)C)C(=O)N[C@@H](C)C(=O)NCC(=O)NCC(=O)N1CCC[C@H]1C(=O)N[C@@H](CO)C(=O)N[C@@H](CO)C(=O)NCC(=O)N[C@@H](C)C(=O)N1CCC[C@H]1C(=O)N1CCC[C@H]1C(=O)N1CCC[C@H]1C(=O)N[C@@H](CO)C(N)=O [Compound 191] (H-[Dap](Isobutyryl(2-(3-CN-5-F-Ph)))EGTFTSDYSI[Aib]LDKIAQK([AEEA-AEEA-γGlu-C20 diacid])AFVQWLIAGGPSSGAPPPS-NH2) | > 1000 | 1 to 10 | 92 | > 1000 | 10 to 100 | 98
5 | CC[C@H](C)[C@H](NC(=O)[C@H](CC(C)C)NC(=O)[C@H](Cc1c[nH]c2ccccc12)NC(=O)[C@H](CCC(N)=O)NC(=O)[C@@H](NC(=O)[C@H](Cc1ccccc1)NC(=O)[C@H](C)NC(=O)[C@H](CCCCNC(=O)COCCOCCNC(=O)COCCOCCNC(=O)CC[C@H](NC(=O)CCCCCCCCCCCCCCCCCCC(=O)O)C(=O)O)NC(=O)[C@H](CCC(N)=O)NC(=O)[C@H](C)NC(=O)[C@@H](NC(=O)[C@H](CCCCN)NC(=O)[C@H](CC(=O)O)NC(=O)[C@H](CC(C)C)NC(=O)C(C)(C)NC(=O)[C@@H](NC(=O)[C@H](CO)NC(=O)[C@H](Cc1ccc(O)cc1)NC(=O)[C@H](CC(=O)O)NC(=O)[C@H](CO)NC(=O)[C@@H](NC(=O)[C@H](Cc1ccccc1)NC(=O)[C@@H](NC(=O)CNC(=O)[C@H](CCC(=O)O)NC(=O)CCNC(=O)C(C)(C)c1cc(F)cc(C(F)(F)F)c1)[C@@H](C)O)[C@@H](C)O)[C@@H](C)CC)[C@@H](C)CC)C(C)C)C(=O)N[C@@H](C)C(=O)NCC(=O)NCC(=O)N1CCC[C@H]1C(=O)N[C@@H](CO)C(=O)N[C@@H](CO)C(=O)NCC(=O)N[C@@H](C)C(=O)N1CCC[C@H]1C(=O)N1CCC[C@H]1C(=O)N1CCC[C@H]1C(=O)N[C@@H](CO)C(N)=O [Compound 119] ({X74-βAla}-EGTFTSDYSI[Aib]LDKIAQK([AEEA-AEEA-γGlu-C20 diacid])AFVQWLIAGGPSSGAPPPS-NH2) | > 1000 | 1 to 10 | 102 | > 1000 | 10 to 100 | 99
